Test results reported in BindingDB's records for doi:10.3109/14756366.2012.681653 (Atatürk University, 2013).
Structures can show the parent of a compound that is named as a salt.

Biological target: Serum paraoxonase/arylesterase 1 (Homo sapiens, UniProt P27169)
Assay: PON Activity Assay
Procedure: PON activities were measured in the presence of different drug concentrations. Control activity was assumed to be 100% in the absence of inhibitor. Experiments of all compounds were tested in triplicate at each concentration used and Activity%-[Drug] graphs were drawn for each drug. Determination of Ki values was performed by using three different inhibitor concentrations. In these experiments, paraoxone was used as substrate at five different concentrations (0.15, 0.3, 0.45, 0.6, and 0.75 mM).

Chain of Serum paraoxonase/arylesterase 1 (P27169 whole entry): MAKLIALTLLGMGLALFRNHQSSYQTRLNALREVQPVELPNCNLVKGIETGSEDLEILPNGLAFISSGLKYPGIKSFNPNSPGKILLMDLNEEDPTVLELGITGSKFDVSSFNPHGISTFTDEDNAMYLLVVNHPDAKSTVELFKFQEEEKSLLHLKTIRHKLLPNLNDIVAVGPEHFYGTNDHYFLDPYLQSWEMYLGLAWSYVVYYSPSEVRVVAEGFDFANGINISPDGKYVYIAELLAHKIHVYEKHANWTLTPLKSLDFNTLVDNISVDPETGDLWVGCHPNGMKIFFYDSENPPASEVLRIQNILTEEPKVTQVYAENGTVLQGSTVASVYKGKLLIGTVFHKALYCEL

| Ki [mM] | SMILES |
| --- | --- |
| 35.8 | CCC[C@@H]1C[C@@H](C(=O)N[C@@H]([C@H]2O[C@H](SC)[C@H](OP(=O)(O)O)[C@@H](O)[C@H]2O)[C@H](C)Cl)N(C)C1 [Clindamycin phosphate] |
| 3.73 | CCN[C@@H]1C[C@H](N)[C@H](O[C@H]2OC(CN)=CC[C@H]2N)[C@H](O)[C@H]1O[C@H]1OC[C@](C)(O)[C@H](NC)[C@H]1O [Netilmycin sulfate] |
| 56.3 | CN[C@H]1[C@@H](O[C@@H]2[C@@H](O[C@H]3[C@H](O)[C@@H](O)[C@H](N=C(N)N)[C@@H](O)[C@@H]3N=C(N)N)O[C@H](C)[C@@]2(O)C=O)O[C@H](CO)[C@@H](O)[C@@H]1O [Streptomycin sulfate] |

The remaining lines, values behind:

| SMILES | Ki [mM] |
| --- | --- |
| CCC[C@@H]1C[C@@H](C(=O)N[C@@H]([C@H]2O[C@H](SC)[C@H](O)[C@@H](O)[C@H]2O)[C@@H](C)O)N(C)C1 [(2S,4R)-N-((1R,2R)-2-hydroxy-1-((2R,3R,4S,5R,6R)-3,4,5-trihydroxy-6-(methylthio)-tetrahydro-2H-pyran-2-yl)propyl)-1-methyl-4-propylpyrrolidine-2-carboxamide] | 18.3 |
| CN(C)[C@@H]1C(=O)C(C(N)=O)=C(O)[C@@]2(O)C(=O)C3=C(O)c4c(O)cccc4[C@@](C)(O)[C@H]3[C@H](O)[C@@H]12 [Oxytetracycline hydrochloride] | 0.2 |
